Data from patent publication US7892755B2, “Screening method” (Takeda Pharmaceutical Company Limited, priority 2004, dated 2011).

Target: T1, mouse GPR35 (Mus musculus, UniProt Q9ES90, D300Y/S286F)
T1 construct: the digestion product was inserted into plasmid vector pAKKO-111H; expressed in transfected cells; host or cells: CHO-K1 cells
Assay: Reactivity on FLIPR, CHO-K1 cells transfected with mouse GPR35 expression vector
Assay type: cell-based
Procedure: The CHO-K1 cell line (purchased from ATCC) was incubated in HAM F-12 medium (Invitrogen) supplemented with 10% fetal calf serum, unless otherwise indicated. On the day before transfection, the cells were inoculated at 4.5×10^5/10 cm^2 and incubated at 37° C. for 15 hours or more in a CO2 incubator adjusted to 5% CO2 concentration. Using Lipofectamine reagent (Invitrogen), transfection was performed according to modifications of the procedure attached to the reagent. When a 6-well plate was used as the incubator, the transfection was performed as follows. Two tubes each having a 1.5 ml volume were prepared and 100 μl each of Opti-MEM medium (Invitrogen) was dispensed in each tube. […] The cells obtained were counted and diluted to 5×10^4 cells per 100 μl of the medium. […]
To assay the changes in intracellular calcium levels on FLIPR, the following pretreatment was made. First, an assay buffer was prepared to add fluorescence dye Fluo-3AM (DOJIN) to the cells, or to wash the cells immediately before the FLIPR assay. […] After mixing them, the mixture was added to 10.6 ml of an assay buffer supplemented with 105 μl of fetal calf serum to give a fluorescence dye solution. […]

T1 sequence (Q9ES90 whole entry S286F/D300Y): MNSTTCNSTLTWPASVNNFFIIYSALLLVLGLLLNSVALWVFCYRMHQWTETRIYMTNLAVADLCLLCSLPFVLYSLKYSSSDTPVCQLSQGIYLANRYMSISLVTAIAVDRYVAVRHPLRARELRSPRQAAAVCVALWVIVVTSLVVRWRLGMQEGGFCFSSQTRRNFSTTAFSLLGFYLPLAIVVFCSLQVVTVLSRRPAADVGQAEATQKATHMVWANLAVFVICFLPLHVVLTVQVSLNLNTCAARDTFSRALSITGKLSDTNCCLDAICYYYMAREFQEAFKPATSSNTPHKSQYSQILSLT

## O=C1N=c2cc([N+](=O)[O-])c([N+](=O)[O-])cc2=NC1=O [DNQX, 6,7-dinitroquinoxaline-2,3-dione]
  reactivity of mouse GPR35 (FLIPR): responsive
